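Briefly, cells in 96-well plates were exposed to five compound concentrations for 48 h, and endpoints were estimated by linear interpolation. Abbreviation: GI50, concentration required for 50% inhibition of growth. Definition used: TGI = concentration required for complete inhibition of growth.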
Assays:
Test in all cases: NCI tumour cell line growth inhibition, 48 h
786-0 renal = tested on: 786-0 renal
ACHN renal = tested on: ACHN renal
K-562 leukemia = tested on: K-562 leukemia
LOX IMVI melanoma = tested on: LOX IMVI melanoma
LXFL 529 NSCLC = tested on: LXFL 529 NSCLC
RXF 393 renal = tested on: RXF 393 renal
SF-268 CNS = tested on: SF-268 CNS
SNB-19 CNS = tested on: SNB-19 CNS
DU-145 prostate = tested on: DU-145 prostate

| SMILES | GI50 (786-0 renal) [µM] | TGI (786-0 renal) [µM] | GI50 (ACHN renal) [µM] | TGI (ACHN renal) [µM] | GI50 (K-562 leukemia) [µM] | TGI (K-562 leukemia) [µM] | GI50 (LOX IMVI melanoma) [µM] | TGI (LOX IMVI melanoma) [µM] | GI50 (LXFL 529 NSCLC) [µM] | TGI (LXFL 529 NSCLC) [µM] | GI50 (RXF 393 renal) [µM] | TGI (RXF 393 renal) [µM] | GI50 (SF-268 CNS) [µM] | TGI (SF-268 CNS) [µM] | GI50 (SNB-19 CNS) [µM] | TGI (SNB-19 CNS) [µM] | GI50 (DU-145 prostate) [µM] | TGI (DU-145 prostate) [µM] |
| --- | --- | --- | --- | --- | --- | --- | --- | --- | --- | --- | --- | --- | --- | --- | --- | --- | --- | --- |
| NC1CCCCC1N.O=[Se]([O-])[O-].[Pt+4] (centres undefined) | 0.0552 | 20.3 | 0.653 | > 52.4 | 0.413 | > 49.8 | 0.677 | > 100 | 6.25 | > 100 | 7.33 | 57.1 | 0.549 | > 76.8 | 1.32 | > 100 |  |  |
| Cc1ccc(-c2cc3c4c(nc5ccccc53)C(=O)c3cccnc3-c4n2)cc1 | 18.2 | 52.5 | 22.5 | 80.6 | 0.39 | > 100 | 3.4 | 14.5 |  |  | 9.58 | > 100 | 17 | 61.1 | 13.2 | 60.9 | 11.9 | 24.5 |
| Cn1nc(C(F)(F)F)cc1-c1c[nH]c(OCc2ccc(Cl)cc2)c(-c2ccc(Cl)c(C(F)(F)F)c2)c1=O | 1.25 | 4.37 | 1.28 | 4.23 | 0.724 | > 50 | 1.23 | 3.56 |  |  | 1.13 | 3.4 | 1.08 | > 23.8 | 1.63 | > 50 | 1.64 | > 50 |
| C=C1C(=O)O[C@H]2C[C@@H]1CC/C(C)=C/CC/C(C)=C/CC[C@@]2(C)O | 43.4 | > 100 | 55.3 | > 100 | 20 | 50.2 | 17.4 | 31.5 |  |  | > 100 | > 100 | > 100 | > 100 | > 100 | > 100 | 45.3 | > 100 |
| S=C(NCCNC(=S)[S][Sn]([c]1ccccc1)([c]1ccccc1)[c]1ccccc1)[S][Sn]([c]1ccccc1)([c]1ccccc1)[c]1ccccc1 | 0.0366 | 0.104 | 0.0185 | 0.0624 | 0.0168 | 0.144 | 0.0152 | 0.0541 |  |  | 0.01 | 0.0206 | 0.0416 | 0.123 | 0.0638 | 0.139 | 0.0181 | 0.0542 |
| CC/C(=C(/c1ccc(O)cc1)c1ccc(OCCN)cc1)c1ccccc1 | 2.69 | 7.28 | 2.4 | 6.76 | 2.03 | 4.72 | 1.76 | 3.23 |  |  | 2.17 | 7.07 | 3.09 | 9.58 | 4.95 | 19 | 3.5 | 10.8 |
| C[C@]12CC[C@@H]3c4cc(OC(F)F)c(OS(N)(=O)=O)cc4CC[C@H]3[C@@H]1CC[C@@H]2OS(N)(=O)=O | 1.8 | 16.5 | 1.8 | 25.6 | 0.389 | > 100 | 1.25 | 19.1 |  |  | 4.16 | 16.1 | 6.44 | 49.8 | 1.48 | 21.8 | 1.47 | 22.4 |
| N=C(N)SCc1c2ccccc2c(CSC(=N)N)c2ccccc12 | 9.35 | 24 | 3.99 | 18.5 | 3.51 | 17.9 | 1.4 | 21.9 |  |  | 8.22 | 23.7 | 4.32 | 26 | 11.5 | 25 | 5.63 | 20 |
| N=N/C(=C\c1c(O)[nH]c2ccccc12)c1ccccc1 |  | > 77 |  | > 100 |  | > 100 |  | > 70.2 |  |  |  | 62.6 |  | > 100 |  | > 92.9 |  | > 100 |
| c1ccc2cc(NCNc3ccc4ccccc4c3)ccc2c1 |  | 40.8 |  | 38 |  | 38.8 |  | 25.9 |  |  |  | 29.9 |  | > 100 |  | > 100 |  | 27.4 |
| N#Cc1c(N2CCOCC2)nc(=S)[nH]c1-c1ccccc1 | 14.1 | > 100 | 14.1 | > 100 | 52 | > 100 | 23.5 | > 100 |  |  | 21 | > 100 | 33.5 | > 100 | 89.9 | > 100 | 31 | > 100 |
| O=C(/C(=C/c1ccc([N+](=O)[O-])cc1)SCc1ccc(Cl)cc1)c1ccc(F)cc1 | 2.66 | 7.9 | 1.76 | 3.33 | 2.45 | > 100 | 1.63 | 3.1 |  |  | 5.75 | 18.3 | 4.95 | 21.6 | 1.87 | 4.11 | 13.8 | > 57.3 |
| O=[N+]([O-])c1ccc(C2CC(c3ccccc3)=Nc3ccccc3S2)cc1 (centres undefined) | > 100 | > 100 | 88.7 | > 100 | 3.87 | > 100 | 3.68 | > 100 |  |  | > 100 | > 100 | > 100 | > 100 | > 100 | > 100 | 5.15 | > 100 |
| CCNC(=O)Nc1ccc(Oc2ccnc3ccc4c(ccn4C)c23)cc1 | 35.5 | 96.7 | 59.2 | > 100 | 47.4 | > 100 | 20.4 | 40.7 |  |  | 17.9 | > 100 | 50.7 | > 100 | 40.1 | > 100 | > 100 | > 100 |
| COc1cccc(/C=N/NC(=O)c2ccccc2N2CCCC2)c1O | 3.58 | > 100 | 2.72 | > 100 | 5.45 | > 100 | 2.54 | > 100 |  |  | 44.4 | > 100 | 6.46 | > 100 | 8.93 | > 100 | 8.96 | > 100 |

Source: PubChem BioAssay (NCI)
